Here are results for 22 molecules from patent US20240425512A1, “NITROGEN-CONTAINING HETEROCYCLIC COMPOUND, PHARMACEUTICAL COMPOSITION THEREOF AND APPLICATION THEREOF” (280 Bio, Inc., priority 2023, published 2024).

Bounds are passed on as bounds.

The term IC50 denotes the midpoint of a concentration-inhibition curve.

The subject of one test is LS513 colon cancer cell with KRAS G12D mutation. Briefly: Proliferation inhibition on RAS cell lines measured by CTG, LS513. It is filed as cell-based. Particulars: Homo sapiens, LS-513, 144 h, Table 1, numeric value; LS513 cells, incubated for 6 days; read-out: IC50 (LS513^f). The source says:
NCI-H358 is a human non-small cell lung cancer cell line with KRAS G12C mutation; AGS is a gastric cancer cell line with KRAS G12D mutation; SW620 is a colon cancer cell with KRAS G12V mutation; NCI-H460 is a non-small cell lung cancer cell with KRAS Q61H mutation; MKN1 is a wild-type gastric cancer cell with KRAS-amplified; LS513 is a colon cancer cell with KRAS G12D mutation; LoVo is a colon cancer cell with KRAS G13D mutation; NCI-H441 is a lung cancer cell with KRAS G12V mutation, and Capan-2 is a pancreatic cancer cell with KRAS G12V mutation.
(§1) The proliferation inhibitory effect of the compounds on various mutations was evaluated by determining the proliferation inhibitory activity of the compounds on these cell lines.
(§2) The assay was conducted on either 384-well plates or 96-well plates. The procedures are as follows:
(§3) The cell suspensions were added to 384- or 96-well plates (384-well plate: 50 μL; 96-well plate: 100 μL) except for peripheral wells. The plates were placed in a carbon dioxide incubator overnight. NCI-H358, AGS, NCI-H460, MKN-1, LS513, LoVo, and NCI-H441 were placed in a 5%, 370 carbon dioxide incubator overnight, and SW620 was placed in a 0%, 370 carbon dioxide incubator overnight. The HPD300 micro-dosing instrument was used to add the corresponding concentration of compound to each well (9-10 concentration gradients of compound were obtained by 3-fold dilution). Cell plates were incubated in a carbon dioxide incubator for 5-6 days. NCI-H358, AGS, NCI-H460 and MKN-1 were incubated at 5%, 37° incubator and SW620 was incubated at 0%, 370 incubator. On the day of plate measurement, the 384- or 96-well plates were first equilibrated at room temperature for 10-30 min, then CellTiter Glo reagent (384-well plate: 25 μL; 96-well plate: 100 μL) was added to the 384- or 96-well plate, shaken for 10 min away from light, and incubated for 10 min. The plates were placed into Victor NIVO or ENVIDION reader plates, and XLFit was utilized to plot the pharmacodynamic inhibition curve and calculate the IC50 value. “IC50>10 μM” is denoted by “*”, “10 μM≥IC50≥1 μM” is denoted by “**”, and “1 μM≥IC50>100 nM” is denoted by “***”, “IC50<100 nM” is denoted by “****”
As for `C#Cc1c(F)ccc2cc(O)cc(-c3ncc4c(N5CCCCN5)nc(OC[C@@]56CCCN5C[C@H](F)C6)nc4c3F)c12` [Compound 16], the IC50 stood at 11.8 nM.

The test is the same for the next values; noted with them: Homo sapiens, LS-513, 144 h, Table 1; LS513 cells, incubated for 6 days, CellTiter Glo; read-out: IC50 (LS513^f).
In the case of `C#Cc1c(F)ccc2cc(O)cc(-c3ncc4c(N5CCCCCN5C(=O)OC(C)(C)C)nc(OC[C@@]56CCCN5C[C@H](F)C6)nc4c3F)c12` [Compound 12], the half-inhibitory concentration (IC50) was less than 100 nM.
On the same count and under the same terms, then `C#Cc1c(F)ccc2cc(O)cc(-c3ncc4c(N5CCCCCN5C(=O)OC(C)(C)C)nc(OCC5(CN(C)C)CC5)nc4c3F)c12` [Compound 14], with 100 to 1000 nM; and `C#Cc1c(F)ccc2cc(O)cc(-c3ncc4c(N5CCCCN5)nc(OC[C@@]56CCCN5C[C@H](F)C6)nc4c3F)c12` [Compound 16], with less than 100 nM.
Still for that read-out and setting: then `C#Cc1c(F)ccc2cc(O)cc(-c3ncc4c(N5CCCCCN5)nc(OCC56CCCN5C/C(=C/F)C6)nc4c3F)c12` (centres unmarked) [Compound 21], with less than 100 nM; and `C#Cc1c(F)ccc2cc(O)cc(-c3ncc4c(N5CCCCCN5)nc(OCC56CCCN5CC(=C(F)F)C6)nc4c3F)c12` (centres unmarked) [Compound 22], with less than 100 nM.

Still in this test, the particulars now being: Homo sapiens, LS-513, 144 h, Table 2; LS513 cells, incubated for 6 days, CellTiter Glo; read-out: IC50 (LS513^f).
In the case of `C#Cc1c(F)ccc2cc(O)cc(-c3ncc4c(N5CCCCCN5C(=O)OCC)nc(OC[C@@]56CCCN5C[C@H](F)C6)nc4c3F)c12` [Compound 20], the IC50 lay within 100 to 1000 nM.
As for `C#Cc1c(F)ccc2cc(O)cc(-c3ncc4c(N5CCNCCN5)nc(OC[C@@]56CCCN5C[C@H](F)C6)nc4c3F)c12` [Compound 40], the IC50 lay in the range of 1000 to 10000 nM.
On the same count and under the same terms, then `N#Cc1c(N)sc2c(F)ccc(-c3c(Cl)cc4c(N5CCCCCN5)nc(OC[C@@]56CCCN5C[C@H](F)C6)nc4c3F)c12` [Compound 42], with 100 to 1000 nM; and `C=Cc1cc2c(N3CCCCCN3)nc(OC[C@@]34CCCN3C[C@H](F)C4)nc2c(F)c1-c1ccc(F)c2sc(N)c(C#N)c12` [Compound 43], with less than 100 nM; and `CCc1cc2c(N3CCCCCN3)nc(OC[C@@]34CCCN3C[C@H](F)C4)nc2c(F)c1-c1ccc(F)c2sc(N)c(C#N)c12` [Compound 44], with less than 100 nM.
On the same count and under the same terms, then `CCc1c(F)ccc2cc(O)cc(-c3ncc4c(N5CCCCCN5)nc(OCC5(CN6CCOCC6)CC5)nc4c3F)c12` [Compound 46], with less than 100 nM; and `C#Cc1c(F)ccc2cc(O)cc(-c3ncc4c(N5CCCCCN5)nc(OCC5(CN6CCCCC6)CC5)nc4c3F)c12` [Compound 47], with less than 100 nM.
The same measure, in the same setting: under `N#Cc1c(N)sc2c(F)ccc(-c3c(C(F)(F)F)cc4c(N5CCCCCN5)nc(OC[C@@]56CCCN5C[C@H](F)C6)nc4c3F)c12` [Compound 48] stands less than 100 nM.
As for `CCc1c(F)ccc2cc(O)cc(N3CCc4c(nc(OC[C@@]56CCCN5C[C@H](F)C6)nc4N4CCCCCN4)C3)c12` [Compound 51], the IC50 is less than 100 nM.
Same read-out and setting: then `C#Cc1c(F)ccc2cc(O)cc(-c3ncc4c(N5CCCCCN5)nc(OCC5(CN6CCN(C)CC6)CC5)nc4c3F)c12` [Compound 52], with 100 to 1000 nM; and `C#Cc1c(F)ccc2cc(O)cc(-c3ncc4c(N5CCCCCN5)nc(OCC5(CN6CCCC6)CC5)nc4c3F)c12` [Compound 53], with 100 to 1000 nM.
On the same count and under the same terms, under `C#Cc1c(F)ccc2cc(O)cc(-c3ncc4c(N5CCCC(F)(F)CN5)nc(OC[C@@]56CCCN5C[C@H](F)C6)nc4c3F)c12` [Compound 56] stands less than 100 nM.

The test is the same for the next values; noted with them: Table 1; LS513 cells, incubated for 6 days, CellTiter Glo; read-out: IC50 (LS513^f).
On to `C#Cc1c(F)ccc2cc(O)cc(-c3ncc4c(N5CCCCCN5)nc(OCC5(CN(C)C)CC5)nc4c3F)c12` [Compound 13], for which the IC50 was less than 100 nM.

The next test concerns GP2D cells. Briefly: Proliferation inhibition on RAS cell lines measured by CTG, GP2D. It is filed as cell-based. The conditions noted are these: 144 h, Table 2, incubated for 6 days, CellTiter Glo, read-out: IC50 (GP2D^j). As for the experimental part:
as §1, §2, §3
Background: In ATP-based viability assays light output follows the ATP content of the culture.
Consider `C#Cc1c(F)ccc2cc(O)cc(-c3c(C(F)(F)F)cc4c(N5CCCCCN5)nc(OC[C@@]56CCCN5C[C@H](F)C6)nc4c3F)c12` [Compound 54], for which the 50% inhibitory concentration (IC50) is 100 to 1000 nM.
The same measure, in the same setting: under `Oc1cc(-c2ncc3c(N4CCCCCN4)nc(OC[C@@]45CCCN4C[C@H](F)C5)nc3c2F)c2c(F)c(F)ccc2c1` [Compound 66] stands less than 100 nM; under `C#Cc1c(F)ccc2cc(O)cc(-c3ncc4c(N5CC=CCN5)nc(OC[C@@]56CCCN5C[C@H](F)C6)nc4c3F)c12` [Compound 76], 100 to 1000 nM.

The same test, now with this note: 144 h, Table 3, incubated for 6 days, CellTiter Glo, read-out: IC50 (GP2D^l).
Consider `C#Cc1c(F)ccc2cc(OC(=O)N(C)C)cc(-c3ncc4c(N5CCCCCN5)nc(OC[C@@]56CCCN5C[C@H](F)C6)nc4c3F)c12` [Compound 89], for which the 50% inhibitory concentration (IC50) lay in the range of 100 to 1000 nM.
